Assay results as given in US20240238424A1, “HETEROBIFUNCTIONAL COMPOUNDS AND METHODS OF TREATING DISEASE” (Halda Therapeutics OpCo, Inc., priority 2021, published 2024).

Biological target: T1, GSPT1 (Homo sapiens, UniProt P15170+Q96SW2)
T1 construct: host or cells: HEK293 LgBiT cell line
Assay: GSPT1 HiBit degradation assay
Format: cell-based
Details: HEK293 LgBiT cells expressing GSPT1_HiBiT, luminescence after 6 hours
From the text: Promega developed a HEK293 cell line that constitutively expresses LgBiT protein and GSPT1_HiBiT fusion protein. When both proteins are present, the HiBiT portion of the fusion protein combines with LgBiT protein to form a functional luciferase enzyme. Endurazine, a cell permeable small molecule, is converted by cellular esterases into furimazine, which the luciferase enzyme uses as a substrate to generate luminescence. When GSPT1 is degraded, the HiBit is also degraded. This prevents formation of fully functional luciferase, leading to a loss in luminescence. GSPT1 degradation therefore correlates with a decrease in luminescence and can be measured continuously over time. The concentration of compound at which 50% GSPT1 degradation occurs (DC50) was calculated using this system.
• HEK293 LgBiT Cell line (Promega Custom) • Endurazine Substrate (Promega Cat. #N2570) • DMEM (Gibco Cat. #11995) • Penicillin/Streptomycin (Gibco Cat. #15140-122) • Heat Inactivated Fetal Bovine Serum (Gibco Cat. #A38400-01) • Hygromycin B (Gibco Cat. #10-687-010) • 384 Well TC Treated White Microplate (Perkin Elmer Cat. #6007680)
HEK293 LgBiT cells were cultured in DMEM Media supplemented with 10% FBS, 5% Pen/Strep, 200 μg/ml hygromycin and stored in an incubator set at 37° C. and 5% CO2. 18-24 hours prior to compound treatment, HEK293 LgBiT cells were seeded at 1000 cells/well in a 384-well microplate in 25 μl complete media. The plate was spun at 300 g for 30 seconds and stored in the incubator overnight. The next day, compounds were titrated in DMSO and added to media supplemented with endurazine substrate. A 25 ul aliquot of 2× compound/endurazine in media were then added to the 384-well microplate with seeded cells. (Endurazine was used at a final concentration of 0.5×). The plate was spun at 300 g for 30 seconds and stored in the incubator. After 6 hours the plate was read on a Perkin Elmer MultiMode Plate Reader Envision 2105 to measure luminescence signal.

T1 sequence (P15170 whole entry): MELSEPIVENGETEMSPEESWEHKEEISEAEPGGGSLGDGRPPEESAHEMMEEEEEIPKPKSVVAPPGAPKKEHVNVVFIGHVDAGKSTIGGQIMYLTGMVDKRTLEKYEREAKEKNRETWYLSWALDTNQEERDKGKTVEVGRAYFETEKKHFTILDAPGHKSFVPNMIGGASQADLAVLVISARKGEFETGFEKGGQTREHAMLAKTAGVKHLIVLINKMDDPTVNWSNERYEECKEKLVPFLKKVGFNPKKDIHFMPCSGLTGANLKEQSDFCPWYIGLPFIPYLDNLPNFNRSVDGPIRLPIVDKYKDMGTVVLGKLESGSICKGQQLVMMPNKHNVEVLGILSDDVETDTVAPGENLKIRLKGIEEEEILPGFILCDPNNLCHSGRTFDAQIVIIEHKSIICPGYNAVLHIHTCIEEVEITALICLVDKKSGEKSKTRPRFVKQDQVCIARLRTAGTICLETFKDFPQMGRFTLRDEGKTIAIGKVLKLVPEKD
T1 sequence (Q96SW2 whole entry): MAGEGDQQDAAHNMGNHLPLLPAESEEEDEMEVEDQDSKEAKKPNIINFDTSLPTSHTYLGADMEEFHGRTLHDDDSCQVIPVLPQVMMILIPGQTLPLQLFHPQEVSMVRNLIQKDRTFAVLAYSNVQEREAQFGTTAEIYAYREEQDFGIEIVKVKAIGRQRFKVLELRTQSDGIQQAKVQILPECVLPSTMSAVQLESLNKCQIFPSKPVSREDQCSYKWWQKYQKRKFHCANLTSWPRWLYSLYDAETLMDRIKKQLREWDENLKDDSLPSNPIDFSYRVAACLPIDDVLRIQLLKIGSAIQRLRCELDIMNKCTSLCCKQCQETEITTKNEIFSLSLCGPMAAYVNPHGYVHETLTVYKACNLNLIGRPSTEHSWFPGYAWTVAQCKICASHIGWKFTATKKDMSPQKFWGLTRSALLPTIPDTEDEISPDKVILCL
T1 sequence (Q16531 whole entry partner): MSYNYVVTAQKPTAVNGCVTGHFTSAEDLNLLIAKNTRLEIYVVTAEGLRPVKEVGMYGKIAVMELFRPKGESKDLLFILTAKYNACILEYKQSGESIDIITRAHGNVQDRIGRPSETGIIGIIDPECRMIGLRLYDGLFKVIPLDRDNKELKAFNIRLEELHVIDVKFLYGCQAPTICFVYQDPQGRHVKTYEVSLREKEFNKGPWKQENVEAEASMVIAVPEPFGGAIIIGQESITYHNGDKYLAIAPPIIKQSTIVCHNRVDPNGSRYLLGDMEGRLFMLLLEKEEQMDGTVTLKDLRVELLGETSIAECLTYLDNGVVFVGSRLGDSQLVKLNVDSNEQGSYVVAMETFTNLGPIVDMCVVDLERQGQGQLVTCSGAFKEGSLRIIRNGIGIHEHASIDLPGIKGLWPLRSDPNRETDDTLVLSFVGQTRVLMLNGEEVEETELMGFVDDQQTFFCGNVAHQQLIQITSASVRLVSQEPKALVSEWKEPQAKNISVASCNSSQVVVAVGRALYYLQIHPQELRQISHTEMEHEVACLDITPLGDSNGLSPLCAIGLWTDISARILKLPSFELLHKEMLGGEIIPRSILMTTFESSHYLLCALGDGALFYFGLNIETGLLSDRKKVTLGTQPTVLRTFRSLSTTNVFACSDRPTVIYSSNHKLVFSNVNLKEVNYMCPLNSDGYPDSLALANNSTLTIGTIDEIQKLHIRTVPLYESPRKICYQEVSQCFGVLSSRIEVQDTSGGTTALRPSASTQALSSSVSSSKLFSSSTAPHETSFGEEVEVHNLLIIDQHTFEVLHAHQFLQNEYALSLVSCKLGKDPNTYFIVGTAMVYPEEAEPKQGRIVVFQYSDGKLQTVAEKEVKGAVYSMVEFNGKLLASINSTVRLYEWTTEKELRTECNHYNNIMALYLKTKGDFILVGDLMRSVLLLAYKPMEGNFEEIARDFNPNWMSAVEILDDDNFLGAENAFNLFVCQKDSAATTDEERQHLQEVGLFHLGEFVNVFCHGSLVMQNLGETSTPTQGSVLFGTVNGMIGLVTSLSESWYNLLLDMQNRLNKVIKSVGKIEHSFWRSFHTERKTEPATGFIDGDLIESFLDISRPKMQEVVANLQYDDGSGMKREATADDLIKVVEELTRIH

Row | Structure (SMILES) | DC50 (Table 3A) | DC50 (Table 3)
1 | C=CC(=O)Nc1cc(Nc2nccc(-c3cn(C)c4ccccc34)n2)c(OC)cc1N(C)CCN(C)CCOCCOCCOCCOCCCCCCCCc1cc(Cl)cc(NC(=O)NCc2ccc3c(c2)CN(C2CCC(=O)NC2=O)C3=O)c1 (stereo not drawn) [Compound I-61] | – | < 250 nM
2 | C=CC(=O)Nc1cc(Nc2nccc(-c3cn(C)c4ccccc34)n2)c(OC)cc1N(C)CCN(C)CCOCCOCCOCCOCCOCCOCCCCCCCCc1cc(Cl)cc(NC(=O)NCc2ccc3c(c2)CN(C2CCC(=O)NC2=O)C3=O)c1 (stereo not drawn) [Compound I-62] | – | < 250 nM
3 | COc1cc(N2CCN(C(=O)COCCOCCOCCOCCOCCOCCOCCOCCOc3cc(Cl)cc(NC(=O)NCc4ccc5c(c4)CN(C4CCC(=O)NC4=O)C5=O)c3)CC2)ccc1Nc1ncc(Cl)c(Nc2ccccc2P(C)(C)=O)n1 (stereo not drawn) [Compound I-26] | – | > 10000 nM
4 | C=CC(=O)Nc1cc(Nc2nccc(-c3cn(C)c4ccccc34)n2)c(OC)cc1N(C)CCN(C)CCOCCOCCOCCOCCOCCOCCOc1cc(Cl)cc(NC(=O)NCc2ccc3c(c2)CN(C2CCC(=O)NC2=O)C3=O)c1 (stereo not drawn) [Compound I-33] | – | 5000 to 10000 nM
5 | C=C(F)C(=O)N1CCN(c2nc(OC[C@H]3CCCN3CCCOCCOCCOCCOCCOCCOCCCCCCCCc3cc(Cl)cc(NC(=O)NCc4ccc5c(c4)CN(C4CCC(=O)NC4=O)C5=O)c3)nc3c2CCN(c2cccc4cccc(Cl)c24)C3)C[C@H]1CC#N (stereo partly drawn) [Compound I-71] | – | < 250 nM
6 | C=C(F)C(=O)N1CCN(c2nc(OC[C@@H]3CCCN3CCCOCCOCCOCCOCCOCCOCCOCCOCCOCCCCCc3cccc(NC(=O)NCc4ccc5c(c4)CN(C4CCC(=O)NC4=O)C5=O)n3)nc3c2CCN(c2cccc4cccc(Cl)c24)C3)C[C@@H]1CC#N (stereo partly drawn) [Compound I-156] | 250 to 5000 nM | –
7 | Cc1c(CC(=O)N(C)C)ccc(NC(=O)c2nn([C@@H]3CCCN(C(=O)/C=C/CN(C)CCOCCOCCOCCOCCOCCOCCc4cc(Cl)cc(NC(=O)NCc5ccc6c(c5)CN(C5CCC(=O)NC5=O)C6=O)c4)C3)c3ncnc(N)c23)c1C (stereo partly drawn) [Compound I-23, 4-amino-1-[(3R)-1-[(E)-4-[2-[2-[2-[2-[2-[2-[2-[3-chloro-5-[[2-(2,6-dioxo-3-piperidyl)-1-oxo-isoindolin-5-yl]methylcarbamoylamino]phenyl]ethoxy]ethoxy]ethoxy]ethoxy]ethoxy]ethoxy]ethyl-methyl-amino]but-2-enoyl]-3-piperidyl]-N-[4-[2-(dimethylamino)-2-oxo-ethyl]-2,3-dimethyl-phenyl]pyrazolo [3,4-d]pyrimidine-3-carboxamide] | > 10000 nM | –
8 | Cc1ccc(NC(=O)NC(CCCCCOCCOCCOCCOCCOCCN(C)C/C=C/C(=O)N2CCN(c3nc(OC[C@@H]4CCCN4C)nc4c3CCN(c3cccc5cccc(Cl)c35)C4)C[C@@H]2CC#N)c2ccc3c(c2)CN(C2CCC(=O)NC2=O)C3=O)cc1Cl (stereo partly drawn) [Compound I-114] | > 10000 nM | –
9 | CC1(C)[C@H](NC(=O)c2ccc(OCCOCCOCCOCCOCCOCCOCCOCCOCCOCCOCCc3cc(Cl)cc(NC(=O)NCc4ccc5c(c4)CN(C4CCC(=O)NC4=O)C5=O)c3)cc2)C(C)(C)[C@H]1Oc1ccc(C#N)c(Cl)c1 (stereo partly drawn) [Compound I-29] | – | 250 to 5000 nM
10 | CN(C/C=C/C(=O)N1CCN(c2nc(OC[C@@H]3CCCN3C)nc3c2CCN(c2cccc4cccc(Cl)c24)C3)C[C@@H]1CC#N)CCOCCOCCOCCOCCOCCOCCOCCOCCOCCCCCc1cc(Cl)cc(NC(=O)NCc2ccc3c(c2)CN(C2CCC(=O)NC2=O)C3=O)c1 (stereo partly drawn) [Compound I-162] | 250 to 5000 nM | –
11 | CN(C/C=C/C(=O)N1CCC[C@@H](n2nc(-c3ccc(Oc4ccccc4)cc3)c3c(N)ncnc32)C1)CCOCCOCCOCCOCCOCCCCCc1cc(Cl)cc(NC(=O)NCc2ccc3c(c2)CN(C2CCC(=O)NC2=O)C3=O)c1 (stereo partly drawn) [Compound I-104] | 250 to 5000 nM | –
12 | C=CC(=O)N1CCN(c2nc(=O)n(-c3c(C)cc(OCCOCCOCCOCCOCCOCCOCCOCCOCCOCCCCCc4cc(Cl)cc(NC(=O)NCc5ccc6c(c5)CN(C5CCC(=O)NC5=O)C6=O)c4)nc3C(C)C)c3nc(-c4c(O)cccc4F)c(F)cc23)[C@@H](C)C1 (stereo partly drawn) [Compound I-154] | 250 to 5000 nM | –

Now from value to molecule:

Row | DC50 (Table 3A) | DC50 (Table 3) | Structure (SMILES)
13 | 250 to 5000 nM | – | C=CC(=O)N1CCN(c2nc(=O)n(-c3c(C)cc(OCCOCCOCCOCCOCCOCCOCCOCCOCCOCCOCCOCCCCCc4cc(Cl)cc(NC(=O)NCc5ccc6c(c5)CN(C5CCC(=O)NC5=O)C6=O)c4)nc3C(C)C)c3nc(-c4c(O)cccc4F)c(F)cc23)[C@@H](C)C1 (stereo partly drawn) [Compound I-165]
14 | 250 to 5000 nM | – | CCC(=O)N1CCN(c2nc(OC[C@@H]3CCCN3CCOCCOCCOCCOCCOCCOCCOCCOCCOCCOCCOCCOCCOCCOCCCCCCCCc3cc(Cl)cc(NC(=O)NCc4ccc5c(c4)CN(C4CCC(=O)NC4=O)C5=O)c3)nc3c2CCN(c2cccc4cccc(Cl)c24)C3)CC1CC#N (stereo partly drawn) [Compound I-103]
15 | 250 to 5000 nM | – | CN(C/C=C/C(=O)N1CCC[C@@H](n2nc(-c3ccc(Oc4ccccc4)cc3)c3c(N)ncnc32)C1)CCOCCOCCOCCCCCc1cc(Cl)cc(NC(=O)NCc2ccc3c(c2)CN(C2CCC(=O)NC2=O)C3=O)c1 (stereo partly drawn) [Compound I-110]
16 | < 250 nM | – | Cc1c(NC(=O)c2ccc(C3CC3)cc2F)cc(F)cc1-c1ncnc(N)c1OCCN(C)C(=O)/C=C/CN(C)CCOCCOCCOCCOCCOCCCCCc1cc(Cl)cc(NC(=O)NCc2ccc3c(c2)CN(C2CCC(=O)NC2=O)C3=O)c1 (stereo not drawn) [Compound I-105]
17 | 250 to 5000 nM | – | CN(C/C=C/C(=O)N1CCN(c2nc(OC[C@@H]3CCCN3C)nc3c2CCN(c2cccc4cccc(Cl)c24)C3)C[C@@H]1CC#N)CCOCCOCCOCCOCCOCCOCCOCCOCCOCCOCCOCCOCCCCCCCCc1cc(Cl)cc(NC(=O)NCc2ccc3c(c2)CN(C2CCC(=O)NC2=O)C3=O)c1 (stereo partly drawn) [Compound I-88]
18 | 250 to 5000 nM | – | C=C(F)C(=O)N1CCN(c2nc(OC[C@@H]3CCCN3CCCOCCOCCOCCOCCOCCOCCOCCOCCOCCOCCCCCCCCc3cc(Cl)cc(NC(=O)NCc4ccc5c(c4)CN(C4CCC(=O)NC4=O)C5=O)c3)nc3c2CCN(c2cccc4cccc(Cl)c24)C3)C[C@@H]1CC#N (stereo partly drawn) [Compound I-80]
19 | < 250 nM | – | COc1cc(N2CCN(C(=O)COCCOCCOCCCCCc3cc(Cl)cc(NC(=O)NCc4ccc5c(c4)CN(C4CCC(=O)NC4=O)C5=O)c3)CC2)ccc1Nc1ncc(Cl)c(Nc2ccccc2P(C)(C)=O)n1 (stereo not drawn) [Compound I-121]
20 | < 250 nM | – | Cc1c(NC(=O)c2ccc(C3CC3)cc2F)cc(F)cc1-c1ncnc(N)c1OCCN(C)C(=O)/C=C/CN(C)CCOCCOCCOCCOCCOCCOCCOCCOCCOCCOCCCCCCCCc1cc(Cl)cc(NC(=O)NCc2ccc3c(c2)CN(C2CCC(=O)NC2=O)C3=O)c1 (stereo not drawn) [Compound I-98]
21 | 250 to 5000 nM | – | C=C(F)C(=O)N1CCN(c2nc(OC[C@@H]3C[C@@H](OCC(=O)N(C)CCOCCOCCOCCOCCOCCOCCOCCCCCc4cc(Cl)cc(NC(=O)NCc5ccc6c(c5)CN(C5CCC(=O)NC5=O)C6=O)c4)CN3C)nc3c2CCN(c2cccc4cccc(Cl)c24)C3)C[C@@H]1CC#N (stereo partly drawn) [Compound I-136]
22 | 250 to 5000 nM | – | COc1cc(N2CCN(C(=O)COCCOCCOCCOCCOCCCCCc3cc(Cl)cc(NC(=O)NCc4ccc5c(c4)CN(C4CCC(=O)NC4=O)C5=O)c3)CC2)ccc1Nc1ncc(Cl)c(Nc2ccccc2P(C)(C)=O)n1 (stereo not drawn) [Compound I-119]
23 | < 250 nM | – | C=C(F)C(=O)N1CCN(c2nc(OC[C@@H]3CCCN3CCCOCCOCCOCCOCCOCCOCCOCCOCCCCCCCCc3cc(Cl)cc(NC(=O)NCc4ccc5c(c4)CN(C4CCC(=O)NC4=O)C5=O)c3)nc3c2CCN(c2cccc4cccc(Cl)c24)C3)C[C@@H]1CC#N (stereo partly drawn) [Compound I-78]
24 | < 250 nM | – | Cc1c(NC(=O)c2ccc(C3CC3)cc2F)cc(F)cc1-c1ncnc(N)c1OCCN(C)C(=O)/C=C/CN(C)CCOCCOCCOCCOCCOCCOCCCCCCCCc1cc(Cl)cc(NC(=O)NCc2ccc3c(c2)CN(C2CCC(=O)NC2=O)C3=O)c1 (stereo not drawn) [Compound I-97]
